Test results published in patent US6987106B1, “1,4-diazabicyclo[3.2.2]nonane-4-carboxylates and carboxamide derivates, production and use thereof in therapeutics” (Sanofi-Aventis, priority 1999, dated 2006).

Compound: Br.CN(C(=O)N1CCN2CCC1CC2)c1ccccc1
- melting point: 206 to 207 °C
